Assay results from PMC6432629 (The Prostate, 2016).
Where two headings read alike, the source gives them in different places. Numbered stars: 1 amine (or outer) side, 2 acyl side, 3 side chain; on linkers, the order of the positions; unused ones are H or OH. Square brackets hold non-standard residues; d marks the D form. Peptide text beside a SMILES is read from it. * marks the point of attachment. Emetine(N2') = CC[C@H]1CN2CCc3cc(OC)c(OC)cc3[C@@H]2C[C@@H]1C[C@@H]1c2cc(OC)c(OC)cc2CCN1*; PABC = O=C(OCc1ccc(N[*:1])cc1)[*:2]

Assays:
[1] = tested on: FAP/DPPIV activity in 10% FBS; assay: Inhibition of hydrolysis of 10 to emetine in 10% FBS by FAP inhibitor; type: biochemical, bovine; conditions: Ac-Gly-boroPro 200 μM added to 10% FBS containing media
LNCaP = assay: MTT cell proliferation; conditions: for cytotoxicity to LNCaP (in words): exposure time not given
PC3 = assay: MTT cell proliferation; conditions: for cytotoxicity to PC3 (in words): exposure time not given; for IC50 fold higher than that of emetine, PC3: in FAP-containing FBS
FAP [2] = molecular target: T1, FAP (Homo sapiens, UniProt Q12884); assay: FAP-mediated hydrolysis of prodrugs ex vivo; type: in vitro ADME; conditions: 37°C; for release of emetine on incubation with FAP (in words): FAP in FAP buffer / FAP containing media, LC-MS
T1 sequence (Q12884 27-760 limits assumed): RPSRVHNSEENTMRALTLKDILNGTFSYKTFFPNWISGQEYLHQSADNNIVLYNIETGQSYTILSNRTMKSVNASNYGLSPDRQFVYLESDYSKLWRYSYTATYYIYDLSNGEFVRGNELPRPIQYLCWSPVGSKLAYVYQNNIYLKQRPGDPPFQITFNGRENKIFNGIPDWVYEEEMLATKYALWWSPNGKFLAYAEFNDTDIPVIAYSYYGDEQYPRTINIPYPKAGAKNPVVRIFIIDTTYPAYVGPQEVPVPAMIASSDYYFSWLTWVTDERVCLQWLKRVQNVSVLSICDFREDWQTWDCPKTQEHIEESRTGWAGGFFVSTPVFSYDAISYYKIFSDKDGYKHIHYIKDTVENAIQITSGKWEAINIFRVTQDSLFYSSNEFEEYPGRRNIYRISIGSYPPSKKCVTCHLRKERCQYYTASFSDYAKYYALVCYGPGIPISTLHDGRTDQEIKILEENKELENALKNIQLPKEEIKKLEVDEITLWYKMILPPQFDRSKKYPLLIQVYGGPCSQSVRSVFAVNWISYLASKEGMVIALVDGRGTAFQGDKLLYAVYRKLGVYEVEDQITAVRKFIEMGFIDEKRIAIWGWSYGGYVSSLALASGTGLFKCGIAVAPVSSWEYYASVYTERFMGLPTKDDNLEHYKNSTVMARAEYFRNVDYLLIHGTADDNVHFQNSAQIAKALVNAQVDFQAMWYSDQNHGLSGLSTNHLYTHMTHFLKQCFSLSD

[3] = Hydrolysis of prodrugs in media with 10% FBS; type: in vitro ADME, bovine; conditions: for % emetine released, 10% FBS: RPMI media with 10% FBS, 500 μM compound, 1% DMSO, 24 hr, HPLC and MS
[4] = molecular target: DPPIV (human recombinant CD26) (Homo sapiens, UniProt P27487); assay: DPPIV-mediated hydrolysis of prodrugs ex vivo; type: in vitro ADME
DPPIV (human recombinant CD26), sequence (P27487 whole entry): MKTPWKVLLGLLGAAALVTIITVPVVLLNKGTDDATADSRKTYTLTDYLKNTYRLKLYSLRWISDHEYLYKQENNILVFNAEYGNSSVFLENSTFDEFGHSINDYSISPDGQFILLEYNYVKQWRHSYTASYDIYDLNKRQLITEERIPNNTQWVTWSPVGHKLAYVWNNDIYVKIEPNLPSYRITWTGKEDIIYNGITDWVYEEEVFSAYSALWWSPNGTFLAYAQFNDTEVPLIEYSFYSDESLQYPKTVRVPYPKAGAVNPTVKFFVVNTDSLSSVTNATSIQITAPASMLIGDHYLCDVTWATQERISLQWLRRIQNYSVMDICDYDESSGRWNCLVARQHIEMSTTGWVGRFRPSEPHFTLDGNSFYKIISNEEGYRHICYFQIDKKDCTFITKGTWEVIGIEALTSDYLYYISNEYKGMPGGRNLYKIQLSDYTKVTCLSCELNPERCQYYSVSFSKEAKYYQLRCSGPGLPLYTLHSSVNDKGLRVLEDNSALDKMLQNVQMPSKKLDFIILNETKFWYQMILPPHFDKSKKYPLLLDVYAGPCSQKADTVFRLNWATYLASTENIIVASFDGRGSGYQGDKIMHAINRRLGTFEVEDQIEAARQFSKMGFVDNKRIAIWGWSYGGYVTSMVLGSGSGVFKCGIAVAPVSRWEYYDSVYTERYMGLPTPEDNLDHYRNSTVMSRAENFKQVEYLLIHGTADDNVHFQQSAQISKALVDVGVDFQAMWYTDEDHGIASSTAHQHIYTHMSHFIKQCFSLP

MCF-7 = assay: MTT cell proliferation; conditions: for IC50: read-out: IC50 (nM) MCF-7
[5] = Stability in serum free media; type: in vitro ADME; conditions: 37°C, 72 hr incubation
PrEC cells = assay: Cytotoxicity in normal prostatic epithelial cells in serum free media
[6] = tested on: NCI 60 cancer cell screen; conditions: read-out: GI50 in NCI 60 cancer cell screen; no reference given; cited from earlier work
FAP [7] = assay: FAP buffer; conditions: 37°C, up to 24 hr
FAP and DPPIV = assay: mixture of purified FAP and DPPIV; conditions: 37°C, up to 24 hr
DPPIV = assay: FAP buffer; conditions: Human, 37°C, up to 48 hr
[8] = read-out: IC50 (nM) LNCaP, Table II, 3-day exposure, media containing 10% FBS, MTT
[9] = very high concentration, incubation up to 48 hr at 37°C, LC-MS
[10] = read-out: IC50 (nM) PC3, Table II, 3-day exposure, media containing 10% FBS, MTT
[11] = Table II, 3-day exposure, media containing 10% FBS, MTT
[12] = 3-day exposure, media with 10% FBS

## CC(=O)NCC(=O)N1CCC[C@@H]1B(O)O [AcGBP, Ac-Gly-boroPro]
[1]; 2 hr
  inhibition of release of emetine from 10 in 10% FBS, 2 hr: completely inhibited
[1]; 24 hr
  decrease of release of emetine from 10 in 10% FBS, 24 hr: approximately 45%

## CC[C@H]1CN2CCc3cc(OC)c(OC)cc3[C@@H]2C[C@@H]1C[C@@H]1c2cc(OC)c(OC)cc2CCN1C(=O)[C@@H]1CCCN1C(=O)CNC(=O)[C@H](C)NC(=O)[C@@H]1CCCN1C(=O)CNC(=O)[C@H](CO)NC(=O)[C@H](C)NC(C)=O [Compound 1] (Ac-ASGPAGP-{Emetine(N2')})
LNCaP; media with 10% FBS
  cytotoxicity to LNCaP (in words): not cytotoxic
PC3; media with 10% FBS
  cytotoxicity to PC3 (in words): not cytotoxic
FAP [2]; 24 hr
  release of emetine on incubation with FAP (in words): did not release detectable amounts of emetine

## CC[C@H]1CN2CCc3cc(OC)c(OC)cc3[C@@H]2C[C@@H]1C[C@@H]1c2cc(OC)c(OC)cc2CCN1C(=O)OCc1ccc(NC(=O)[C@@H]2CCCN2C(=O)CNC(=O)[C@H](C)NC(=O)[C@@H]2CCCN2C(=O)CNC(=O)[C@H](CO)NC(=O)[C@H](C)NC(C)=O)cc1 [Compound 2] (Ac-ASGPAGP[PABC]-{Emetine(N2')})
LNCaP; media with 10% FBS
  cytotoxicity to LNCaP (in words): not cytotoxic
PC3; media with 10% FBS
  cytotoxicity to PC3 (in words): not cytotoxic
FAP [2]; 24 hr
  release of emetine on incubation with FAP (in words): not cleaved by FAP containing media to release emetine

## CC[C@H]1CN2CCc3cc(OC)c(OC)cc3[C@@H]2C[C@@H]1C[C@@H]1c2cc(OC)c(OC)cc2CCN1C(=O)[C@H](C)NC(=O)[C@@H]1CCCN1C(=O)CNC(=O)[C@H](C)NC(=O)[C@@H]1CCCN1C(=O)CNC(=O)[C@H](CO)NC(=O)[C@H](C)NC(C)=O [Compound 3] (Ac-ASGPAGPA-{Emetine(N2')})
PC3
  IC50 fold higher than that of emetine, PC3: more than 150 fold
FAP [2]; 24 hr incubation with FAP
  % cleavage to Ala-Gly-Pro-Ala-Emetine: 100%
FAP [2]; 24 hr
  release of emetine on incubation with FAP (in words): no further conversion to free emetine

## CC[C@H]1CN2CCc3cc(OC)c(OC)cc3[C@@H]2C[C@@H]1C[C@@H]1c2cc(OC)c(OC)cc2CCN1C(=O)OCc1ccc(NC(=O)[C@H](C)NC(=O)[C@@H]2CCCN2C(=O)CNC(=O)[C@H](C)NC(=O)[C@@H]2CCCN2C(=O)CNC(=O)[C@H](CO)NC(=O)[C@H](C)NC(C)=O)cc1 [Compound 4] (Ac-ASGPAGPA[PABC]-{Emetine(N2')})
PC3
  IC50 fold higher than that of emetine, PC3: more than 150 fold
FAP [2]; 24 hr incubation with FAP
  % Ala-Gly-Pro-Ala-PABC-Emetine (minor cleavage product): 15%
  % Ala-PABC-Emetine (major cleavage product): 85%
FAP [2]; 24 hr
  release of emetine on incubation with FAP (in words): no further conversion to free emetine

## CC[C@H]1CN2CCc3cc(OC)c(OC)cc3[C@@H]2C[C@@H]1C[C@@H]1c2cc(OC)c(OC)cc2CCN1C(=O)[C@@H]1CCCN1C(=O)[C@H](C)N [Compound 9]
LNCaP; media with 10% FBS
  cytotoxicity to LNCaP (in words): inactive compared to emetine
LNCaP; [8]
  IC50: 9520 nM
[3]; 37°C
  % emetine released, 10% FBS: 0%
[3]; [9]
  conversion to emetine in 10% FBS (in words): not converted to emetine
PC3; media with 10% FBS
  cytotoxicity to PC3 (in words): inactive compared to emetine
PC3; [10]
  IC50: > 10000 nM
[4]; [9]
  conversion to emetine by purified DPPIV (in words): not converted to emetine
MCF-7; media with 10% FBS, exposure time not given
  cytotoxicity to MCF-7 (in words): inactive compared to emetine
MCF-7; [11]
  IC50: > 10000 nM

## CC[C@H]1CN2CCc3cc(OC)c(OC)cc3[C@@H]2C[C@@H]1C[C@@H]1c2cc(OC)c(OC)cc2CCN1C(=O)OCc1ccc(NC(=O)[C@@H]2CCCN2C(=O)[C@H](C)N)cc1 [Compound 10, Ala-Pro-PABC-Emetine]
LNCaP; [12]
  cytotoxicity / IC50 compared with emetine, LNCaP (in words): cytotoxicity comparable to that of emetine
LNCaP; [8]
  IC50: 38.2 ± 1 nM
[3]; 10% FBS media, 37°C, 2 hr
  % conversion to emetine in 10% FBS, 2 hr: 10%
[3]; 37°C
  % emetine released, 10% FBS: 78%
[5]
  stability in serum free media: completely stable
PC3; [12]
  cytotoxicity / IC50 compared with emetine, PC3 (in words): cytotoxicity comparable to that of emetine
PC3; [10]
  IC50: 37.2 ± 1.6 nM
PrEC cells; 100 nM, 1-3 days exposure, serum free media lacking FAP and DPPIV
  cytotoxicity to PrEC (in words): no observable cytotoxicity
FAP [2]; purified recombinant FAP 300 nM, 24 hr
  % conversion to emetine by FAP, 24 hr: 36%
[4]; 10 at 500 μM (Fig. 3 legend: 200 μM), DPPIV 30 nM, 37°C, 2 hr
  % conversion to emetine by purified DPPIV, 2 hr: 88%
MCF-7; [12]
  cytotoxicity / IC50 compared with emetine, MCF-7 (in words): cytotoxicity comparable to that of emetine
MCF-7; [11]
  IC50: 38.4 ± 1.2 nM

## CC[C@H]1CN2CCc3cc(OC)c(OC)cc3[C@@H]2C[C@@H]1C[C@H]1NCCc2cc(OC)c(OC)cc21 [Emetine, emetine]
LNCaP; Homo sapiens, LNCaP, 120 h, read-out: LNCaP [IC50 (nM)]
  IC50: 31.6 ± 2.4 nM
[6]
  GI50: 27 nM
PC3; Homo sapiens, PC-3, 120 h, read-out: PC3 [IC50 (nM)]
  IC50: 29.4 ± 3.2 nM
PrEC cells; 100 nM, PrEC in serum free media lacking FAP and DPPIV, day 1
  percentage of viable cells relative to control, day 1: 80%
PrEC cells; 100 nM, PrEC in serum free media lacking FAP and DPPIV, day 2
  percentage of viable cells relative to control, day 2: 50%
PrEC cells; 100 nM, PrEC in serum free media lacking FAP and DPPIV, day 3
  percentage of viable cells relative to control, day 3: 10%
PrEC cells; 3-day exposure, keratinocyte serum free media, no FAP or DPPIV
  cytotoxicity to PrEC at 100 nM and 1,000 nM (in words): highly cytotoxic
PrEC cells; Homo sapiens, PrEC, 72 h, read-out: calculated IC50 in the PrEC cell lines
  IC50: 35.7 nM
MCF-7; Homo sapiens, MCF7, 72 h
  IC50: 35.8 ± 1.6 nM

## Ac-Ala-Ser-Gly-Pro-Ala-Gly-Pro-Ala-Pro-PABC-Emetine
FAP [7]
  fragment found: emetine
FAP and DPPIV
  fragment found: emetine, 2 hr

## Ala-Pro-PABC-Emetine
FAP [7]
  fragment found: emetine
DPPIV
  fragment found: emetine, 2 hr
